# Patent US20110212909A1, “Use of Ginsenoside Compound K in the Preparation of a Medicament for the Prevention and Treatment of Atherosclerosis” (priority 2008, published 2011)
# Marks after values point to notes of the source that are not given here.
# Assays:
# [1] = system: ABCA1 mRNA; experiment: Real-time quantitative PCR of ABCA1 mRNA in apo E−/− mouse aorta; type: in vivo; details: apo E−/− mice, 15 weeks
# Experimental: (§1) 80 healthy clean grade C57BL/6J apo E^−/^− mice of 10 weeks old, wherein male and female mice were fifty-fifty, weight 20-22 g, were breed and divided into individual cage in sterile laminar flow rack, allowing mice to freely drink water and get food. Mice were raised for 30 weeks by “Western Diet” (routine mouse feed +0.15% cholesterol +21% fat) high fat feed (^60cobalt sterilization radiation treatment), with raising conditions being SPF grade, room temperature maintained at 24° C., relative humidity of 50%, and lighting time of 7: 30-19: 30. Animal house was sterilized by ultraviolet lamp once every two days, in order to maintain sterile environment of laminar flow rack (establishment of animal model of atherosclerosis refers to reference: Barish G D, Atkins A R, Downes M, Olson P, Chong L W, Nelson M, Zou Y H, Hwang H S, Kang H J, Curtiss L, Evans R M, Lee C H. PPARδ regulates multiple proinflammatory pathways to suppress atherosclerosis. Proc Natl Acad Sci, 2008, 105 (11): 4271-4276.).
# (§2) 5 mice of apo E^−/^− mice raised for 15 weeks were randomly selected and sacrificed, root of aorta of which was taken, and replication condition in AS model was observed by HE staining. The remaining mice were randomly divided into 5 groups as follows (n=15): […]
# (§3) Above drugs were firstly solved in DMSO, then suspended in 0.5% carboxymethylcellulose solution, mixed homogeneously, and then were administered via gavage, once a day. Mice were weighted once a week, and ingestion amounts were recorded, and drug doses were adjusted according to weight, interfering for 15 weeks. […]
# (§4) • blood fat assay: TC, TG, HDL-C, and LDL-C concentrations in serum were determined by applying Olympus Au2700 fully automatic biochemical appearance. • serum inflammatory markers assay: hs-CRP and sCD40L concentrations were determined by applying double antibody sandwich ELISA, in accordance with ELISA kit operating instruction (hs-CRP ELISA kit bought from Herrenberg company, Germany; sCD40L ELISA kit bought from Bender Medsystems company, Austria). • real-time quantitative PCR analysis was carried out on expression of CD36, perilipin, ABCA1, LXRα, MMP-9 and NF-κ B mRNA in apo E^−/^− mouse aorta (a reference method: Zhang Yiguan, Li Xiaohui, Fan Jishan, Zhang Haigang, Li Shuhui, Liao Wenqiang, Pang Yan, Jia Yi. […] 2007, 27 (11): 1601-1607)0 • morphology index image analysis: When slices were HE stained, under X40 fold ordinary light microscope, artery atherosclerosis plaque area of each incisal surface was determined by “Image Pro Plus 5.0” image analysis software. […] As to Masosn staining, aortic root collagen area (CA) was measured by “Image Pro Plus 5.0” image analysis software, and collagen vessel area ratio (CA/CVA) was calculated. […]
# [2] = system: AS plaque in apo E−/− mouse aorta; experiment: Sudan IV staining of aorta, proportion of plaque area in arteria lining endothelium area; type: in vivo; details: apo E−/− mice, 15 weeks
# Experimental: (§6) A. model group: vehicle; B. ginsenoside compound K low dose group: ginsenoside compound K 12.5 mg/kg/day; C. ginsenoside compound K middle dose group: ginsenoside compound K 25.0 mg/kg/day; D. ginsenoside compound K high dose group: ginsenoside compound K 50.0 mg/kg/day; E. simvastatin control group: simvastatin 10.0 mg/kg/day.
# (§7) Above drugs were firstly solved in DMSO, then suspended in 0.5% carboxymethylcellulose solution, mixed homogeneously, and then were administered via gavage, once a day. Mice were weighted once a week, and ingestion amounts were recorded, and drug doses were adjusted according to weight, interfering for 15 weeks. All the animal were sacrificed in 30th week.
# Tissues of apo E^−/^− mice were sliced for AS plaque pathology: blood of eye sockets venous plexus of apo E−/− mice was sampled before the mice was sacrificed by cervical dislocation, and aorta was fixed by converse infusion of physiological saline comprising 4% paraformaldehyde into left ventricle, and then whole aorta was cut off from root of aorta to terminal end of abdomen aorta. Root of aorta was taken, and embedded routinely by paraffin, and slices of thickness of 5 μm were continuously cut off from root of aorta, and were subjected separately to HE staining, and MASSON staining, and then were utilized for AS plaque morphological index analysis of aortic valve cross section.
# Pathological staining: □sequent 2 pieces of slices were picked up from each incisal surface of sequent paraffin slices of aorta root per mouse, and were separately subjected to HE staining, and MASSON staining, and were observed under light microscope. □remaining aorta was stained by Sudan IV, and was observed under light microscope.
# [3] = system: hs-CRP; experiment: Serum hs-CRP by double antibody sandwich ELISA in apo E−/− mice; type: in vivo, mouse; details: 15 weeks
# Experimental: as §1, §2, §3
# (§5) • blood fat assay: TC, TG, HDL-C, and LDL-C concentrations in serum were determined by applying Olympus Au2700 fully automatic biochemical appearance. • serum inflammatory markers assay: hs-CRP and sCD40L concentrations were determined by applying double antibody sandwich ELISA, in accordance with ELISA kit operating instruction (hs-CRP ELISA kit bought from Herrenberg company, Germany; sCD40L ELISA kit bought from Bender Medsystems company, Austria). • real-time quantitative PCR analysis was carried out on expression of CD36, perilipin, ABCA1, LXRα, MMP-9 and NF-κ B mRNA in apo E^−/^− mouse aorta (a reference method: Zhang Yiguan, Li Xiaohui, Fan Jishan, Zhang Haigang, Li Shuhui, Liao Wenqiang, Pang Yan, Jia Yi. […] 2007, 27 (11): 1601-1607)0 • morphology index image analysis: When slices were HE stained, under X40 fold ordinary light microscope, artery atherosclerosis plaque area of each incisal surface was determined by “Image Pro Plus 5.0” image analysis software. […]
# [4] = system: sCD40L; experiment: Serum sCD40L by double antibody sandwich ELISA in apo E−/− mice; type: in vivo, mouse; details: 15 weeks
# Experimental: as §1, §2, §3, §5
# [5] = system: LXRα mRNA; experiment: Real-time quantitative PCR of LXRα mRNA in apo E−/− mouse aorta; type: in vivo; details: apo E−/− mice, 15 weeks
# Experimental: as §1, §2, §3, §4
# [6] = system: NF-κB mRNA; experiment: Real-time quantitative PCR of NF-κB mRNA in apo E−/− mouse aorta; type: in vivo; details: apo E−/− mice, 15 weeks
# Experimental: as §6, §7
# Total RNA sample of root of aorta of apo E^−/^− mouse: Total RNA samples of root of aorta in each group mouse were extracted, and utilized for analysis of gene expression of various lipid metabolic factors, inflammatory factors, and nucleic transcription factors associated with AS plaque development.
# [7] = system: MMP-9 mRNA; experiment: Real-time quantitative PCR of MMP-9 mRNA in apo E−/− mouse aorta; type: in vivo; details: apo E−/− mice, 15 weeks
# Experimental: as §1, §2, §3, §4
# [8] = C-K high dose 50.0 mg/kg/day gavage
# [9] = C-K middle dose 25.0 mg/kg/day gavage
# [10] = simvastatin 10.0 mg/kg/day gavage
structure (smiles),measurement,setting,value
"CC(C)=CCC[C@](C)(OC1OC(CO)C(O)C(O)C1O)C1CC[C@]2(C)C1[C@H](O)CC1[C@@]3(C)CC[C@H](O)C(C)(C)C3CC[C@]12C (stereo partly drawn) [C-K, 20-O-β-D-glucopyranosyl 20-(S)-protopanaxadiol]",expression of ABCA1 mRNA in aorta (relative concentrations),[1]; [8],1.34 ± 0.13^b
same,expression of ABCA1 mRNA in aorta (relative concentrations),"[1]; C-K low dose 12.5 mg/kg/day gavage, model 0.65 ± 0.18",1.08 ± 0.15^b
same,expression of ABCA1 mRNA in aorta (relative concentrations),[1]; [9],1.19 ± 0.18^b
same,plaque area/ arteria lining endothelium area,[2]; [8],6.73 ± 0.65^b %
same,plaque area/ arteria lining endothelium area,"[2]; C-K low dose 12.5 mg/kg/day gavage, model 12.24 ± 0.45",9.28 ± 0.39^b %
same,plaque area/ arteria lining endothelium area,[2]; [9],9.54 ± 0.21^b %
same,hs-CRP concentration in serum,[3]; [8],6.14 ± 0.29^a ng/mL
same,hs-CRP concentration in serum,"[3]; C-K low dose 12.5 mg/kg/day gavage, model 8.13 ± 0.51",6.68 ± 0.54^a ng/mL
same,hs-CRP concentration in serum,[3]; [9],6.49 ± 0.36^a ng/mL
same,sCD40L concentration in serum,[4]; [8],5.19 ± 0.19^a ng/mL
same,sCD40L concentration in serum,"[4]; C-K low dose 12.5 mg/kg/day gavage, model 6.15 ± 0.21",5.51 ± 0.35^a ng/mL
same,sCD40L concentration in serum,[4]; [9],5.34 ± 0.32^a ng/mL
same,expression of LXRα mRNA in aorta (relative concentrations),[5]; [8],1.36 ± 0.06^b
same,expression of LXRα mRNA in aorta (relative concentrations),"[5]; C-K low dose 12.5 mg/kg/day gavage, model 0.87 ± 0.06",1.26 ± 0.05^b
same,expression of LXRα mRNA in aorta (relative concentrations),[5]; [9],1.33 ± 0.05^b
same,expression of NF-κB mRNA in aorta (relative concentrations),[6]; [8],0.69 ± 0.16^b
same,expression of NF-κB mRNA in aorta (relative concentrations),"[6]; C-K low dose 12.5 mg/kg/day gavage, model 1.27 ± 0.18",0.90 ± 0.19^b
same,expression of NF-κB mRNA in aorta (relative concentrations),[6]; [9],0.78 ± 0.23^b
same,expression of MMP-9 mRNA in aorta (relative concentrations),[7]; [8],0.67 ± 0.13^b
same,expression of MMP-9 mRNA in aorta (relative concentrations),"[7]; C-K low dose 12.5 mg/kg/day gavage, model 1.15 ± 0.12",0.87 ± 0.12^b
same,expression of MMP-9 mRNA in aorta (relative concentrations),[7]; [9],0.78 ± 0.11^b
"CCC(C)(C)C(=O)O[C@H]1C[C@@H](C)C=C2C=C[C@H](C)[C@H](CC[C@@H]3C[C@@H](O)CC(=O)O3)[C@H]21 [simvastatin, reference compound]",expression of ABCA1 mRNA in aorta (relative concentrations),[1]; [10],0.78 ± 0.12^a
same,plaque area/ arteria lining endothelium area,[2]; [10],6.31 ± 0.19^b %
same,hs-CRP concentration in serum,[3]; [10],4.57 ± 0.68^b ng/mL
same,sCD40L concentration in serum,[4]; [10],4.59 ± 0.37^b ng/mL
same,expression of LXRα mRNA in aorta (relative concentrations),[5]; [10],0.95 ± 0.07
same,expression of NF-κB mRNA in aorta (relative concentrations),[6]; [10],0.89 ± 0.16^b
same,expression of MMP-9 mRNA in aorta (relative concentrations),[7]; [10],0.94 ± 0.14^a
